Measurements: patent US5688771A, “Lipophilic oligopeptides with immunomodulating activity” (priority 1993, dated 1997)
Values joined by “and” are separate entries in the source; they are usually repeats but may differ in a detail not shown here. Equal values may be shown once. “Also recorded” adds a separate entry of the source. Read-outs that look alike come from different tables or passages of the source.

What was measured:
[1] = test system: antibody producing cells (SRBC antigen); assay: Plaque forming assay (PFC) in spleen cells of SRBC-immunized mice; format: in vivo
[2] = test system: IgM antibody against SRBC antigen; assay: Enzyme immunoassay of IgM antibody in blood of SRBC-immunized mice; format: in vivo; settings: Experiment 7, 10 mg/kg i.p.
Description: Outbred CD1 mice were immunized with 0.1% volume for volume sheep red blood cell antigen suspended in saline. The mice were injected intraperitoneally with 0.5 ml, suspension of approximately 2×10^7 cells.
The mice were injected shortly thereafter with a suspension of an immunomodulator of the invention. The immunomodulator dose was a 0.23 ml of a 1 mg/ml suspension in phosphate buffered saline. The injected dose was 10 mg/kg. The second injection was also intraperitoneal.
The mice were killed five days after injections. Blood samples were taken for analysis of immunoglobulin. The determination was made by enzyme immunoassay using an anti μ-horseradish peroxidase conjugate. The spleen was removed, transferred to a petri dish containing 2 ml of Hank's balanced salt solution and 10 mMolar Hepes buffer (HBSS-HEPES). The spleen was gently crushed by the use of forceps, and the cell suspension was filtered through cotton gauze to eliminate cellular debris. The filtered suspension was brought to volume (5 ml) by the addition of HBSS-HEPES, the cells counted, and the suspension diluted to a final concentration of 5×10^6 cells/ml.

[3] = test system: Total T and B cells in splenocytes; assay: Splenic T and B cell enumeration by FACS; format: in vivo, C57BL/6 mice
Description: Splenic cells were enumerated with the following assay. Dispersed splenocytes were reacted with fluorescein isothiocyanate-labelled murine monoclonal antibody anti-Ly5 for B cell enumeration and phycoerythrin-labelled monoclonal antibody anti-Thy 1.2 for T cell counts. The labelled cells were then enumerated with a fluorescence-activated cell sorter (FACS) (EPICS-C, Coulter Corp., Hialeah, Fla.).

[4] = test system: YAC-1 tumor cells; format: in vivo, BALB/c mice; settings: for Mean percent chromium release (2SE), Effector:Target 25:1 / Mean percent chromium release (2SE), Effector:Target 50:1 / Mean percent chromium release (2SE), Effector:Target 100:1: ip, Hydrochloride
[5] = test system: Macrophage activation (IL-1 concentration); set-up: species or system BALB/c mice; settings: mouse, in vivo, Hydrochloride
[6] = test system: murinecytomegalovirus (MCMV) (Smith strain); assay: Mortality in MCMV-infected mice; format: in vivo, Swiss Webster female mice; settings: for Survivors (%) / Survivors/total / Mean day to death: MCMV-infected mice; for Survivors (%) / Survivors/total: 21 days; for Mean day to death: of mice that died on or before day 21
[7] = test system: murinecytomegalovirus (MCMV) (Smith strain); assay: MCMV titers in tissues; format: in vivo, Swiss Webster female mice
[8] = Toxicity controls: mortality and weight gain in uninfected mice; format: in vivo; settings: uninfected mice; for Mean Weight Gain: start of treatment to 24 hours after final treatment
Description: Groups of 5 uninfected mice were treated the same way and at the same times as described above. These animal were checked daily for survival. Their weigths were taken before the first treatment and 24 hours after the last treatment to determine drug effect on weight gain.

[9] = test system: YAC-1 tumor cells; assay: Natural killer cell activity, 4 hr chromium release assay
Description: (§1) Mice were administered a 50 mg/kg dose of the immunomodulators of the invention and were subsequently sacrificed. The spleens were harvested and splenocytes isolated. Immunologic assays were conducted on those splenocytes that were taken 24 hours after final treatment. These cells were subjected to tests to determine macrophage and natural killer (NK) cell function.
Three week-old C57 BL/6 mice were procured and quarantined for 24 to 48 hours prior to treatment. The five oligopeptides described in tables 2, 3 and 4 were admixed with a 0.4% water solution of carboxymethylcellulose. The solutions were stored at 4° C. until use. Ribavarin (1-β-D-ribofuranosyl-1,2,4-triazole-carboxamide) was used in each subsequent experiment as a control.
(§2) Animals were treated with a 50 mg/kg/day dosage of one of the tested compound and were killed 24 hr after the final treatment and their spleens removed. […] Red blood cells were removed by haemolytic lysis.
Natural killer (NK) activity of murine cells was determined by testing splenic cells for their ability to lyse YAC-1 tumor cells in a conventional 4 hr chromium release assay as an indicator of NK was expressed as: % chromium release=(experimental counts per minute (cpm)-background cpm)/(maximum cpm-background cpm)

[10] = test system: Macrophage function (IL-1 activity in splenocytes); assay: Macrophage function, IL-1 activity in splenocytes by [3H]thymidine uptake in PHA-stimulated thymocytes
Description: as §1
Ribavarin (1-β-D-ribofuranosyl-1,2,4-triazole-carboxamide) was used in each subsequent experiment as a control.
as §2
Macrophage function was assessed by an interleukin-1 (IL-1) assay that utilizes responsiveness of mouse thymocytes to phytohemagglutin (PHA) which is dependent on IL-1 for its reactivity.
The cells were incubated 72 hr at 37° C. During the last 4 hr of the incubation, the cells were pulsed with [^3 H] thymidine (1 μCi/well). The cells were then harvested and [H^3 ] thymidine incorporation was determined using a direct counter.

[11] = 50 mg/kg, splenocytes, Hydrochloride
[12] = 50 mg/kg i.p. days -1,+1,+3,+5,+7
[13] = 100 mg/kg i.p. days -1,+1,+3,+5,+7
[14] = 200 mg/kg i.p. days -1,+1,+3,+5,+7
[15] = prophylactic treatment, three doses 50-200 mg/kg i.p., Hydrochloride
[16] = 50 mg/kg/day i.p. every other day for 4 injections, splenocytes 24 hr after final treatment, n = 5
[17] = 50 mg/kg, splenocytes 24 hours after final treatment, Hydrochloride

Structure (SMILES): CCCCCCCCCCCCCCCCCCN[C@H](C)C(=O)N[C@@H](CCC(N)=O)C(=O)O.Cl [BCH-527, Octadecyl D-Alanyl L-Glutamine Hydrochloride]
- Plaque Assay, PFC relative to control (100%) ([1]; Experiment 7, mice, 10 mg/kg i.p.): 6843%
- Plaque Assay, PFC per 10^6 spleen cells ([1]; Experiment 7, mice, 10 mg/kg i.p., five days after injections): 479 ± 322 PFC per 10^6 spleen cells
- Immunomodulating activity (in words) ([1]; plaque-forming assay, Table 1): immunostimulants
- Enzyme Immunoassay, IgM antibody relative to control (100%) [2]: 523%
- % Cells/Spleen ± SD, B Cells ([3]; 50 mg/kg/day i.p. every other day for 4 injections, anti-Ly5, n = 5): 43 ± 1.5%
- % Cells/Spleen ± SD, T Cells ([3]; 50 mg/kg/day i.p. every other day for 4 injections, anti-Thy 1.2, n = 5): 39 ± 2.3%
- Effect on B cell counts (in words) [3, 11]: increase % B cells; also recorded: increased B cell counts
- Effect on T cell counts (in words) [3, 11]: suppressing T cells; also recorded: suppressed T cell counts
- Effect on NK cells (in words) ([4]; after 4 injections at 100 and 50 mg/kg/day, […]): strong activation of NK cells
- Effect on natural killer cells activity (in words) ([4]; mouse, in vivo): stimulated the natural killer cells activity
- Mean percent chromium release (2SE), Effector:Target 25:1 ([4]; mouse, in vivo, 50 mg/kg/day): 10.8(1.3) percent and 12.7(0.4) percent and 14.8(0.9) percent
- Mean percent chromium release (2SE), Effector:Target 50:1 ([4]; mouse, in vivo, 50 mg/kg/day): 17.6(1.1) percent and 17.1(0.6) percent and 18.5(1.0) percent
- Mean percent chromium release (2SE), Effector:Target 100:1 ([4]; mouse, in vivo, 50 mg/kg/day): 21.2(2.9) percent and 23.3(1.0) percent and 23.9(1.1) percent
- Mean percent chromium release (2SE), Effector:Target 25:1 ([4]; mouse, in vivo, 100 mg/kg/day): 10.6(1.8) percent and 11.8(1.7) percent and 16.9(1.3) percent
- Mean percent chromium release (2SE), Effector:Target 50:1 ([4]; mouse, in vivo, 100 mg/kg/day): 16.6(1.9) percent and 16.4(1.8) percent and 20.8(1.4) percent
- Mean percent chromium release (2SE), Effector:Target 100:1 ([4]; mouse, in vivo, 100 mg/kg/day): 20.0(2.0) percent and 22.3(2.0) percent and 26.5(1.6) percent
- Mean percent chromium release (2SE), Effector:Target 25:1 ([4]; mouse, in vivo, 200 mg/kg/day): 11.3(0.6) percent and 8.6(0.6) percent and 9.6(0.9) percent
- Mean percent chromium release (2SE), Effector:Target 50:1 ([4]; mouse, in vivo, 200 mg/kg/day): 17.3(1.4) percent and 12.8(0.7) percent and 12.9(0.9) percent
- Mean percent chromium release (2SE), Effector:Target 100:1 ([4]; mouse, in vivo, 200 mg/kg/day): 20.4(2.4) percent and 18.2(1.0) percent and 17.6(1.1) percent
- IL-1 Conc. (2SE) ([5]; 200 mg/kg/day): 16.6(3.7) μg/ml and 31.4(3.4) μg/ml and 29.1(7.4) μg/ml
- Effect on macrophage activation (in words) [5]: significant macrophage activator; also recorded: macrophage stimulation
- Survivors (%) [6, 12]: 90%
- Survivors/total [6, 12]: 9/10
- Mean day to death ([6]; 50 mg/kg i.p.): 4.0 ± 0.0 days
- Survivors (%) [6, 13]: 78%
- Survivors/total [6, 13]: 7/9
- Mean day to death ([6]; 100 mg/kg i.p.): 10.5 ± 6.3 days
- Survivors (%) [6, 14]: 100%
- Survivors/total [6, 14]: 10/10
- Mean day to death ([6]; 200 mg/kg i.p.): > 21 days
- Effect on death in CMV-challenged mice (in words) [6, 15]: prevented death; also recorded: preventing death
- Virus titer in Liver ([7]; Day 3, 50 mg/kg): 3.1±0.7 Log10 CCID50/qram
- Virus titer in Lung ([7]; Day 3, 50 mg/kg): < 2.5±0.0 Log10 CCID50/qram
- Virus titer in spleen ([7]; Day 3, 50 mg/kg): 6.1±0.6 Log10 CCID50/qram
- Virus titer in Liver ([7]; Day 3, 100 mg/kg): 2.9±0.7 Log10 CCID50/qram
- Virus titer in Lung ([7]; Day 3, 100 mg/kg): < 2.5±0.0 Log10 CCID50/qram
- Virus titer in salivary gland ([7]; Day 3, 100 mg/kg): 3.0±0.4 Log10 CCID50/qram
- Virus titer in spleen ([7]; Day 3, 100 mg/kg): 4.7±1.6 Log10 CCID50/qram
- Virus titer in Liver ([7]; Day 3, 200 mg/kg): 2.9±0.4 Log10 CCID50/qram
- Virus titer in Lung ([7]; Day 3, 200 mg/kg): < 2.5±0.0 Log10 CCID50/qram
- Virus titer in salivary gland ([7]; Day 3, 200 mg/kg): < 2.5±0.0 Log10 CCID50/qram
- Virus titer in spleen ([7]; Day 3, 200 mg/kg): 5.3±0.4 Log10 CCID50/qram
- Virus titer in Liver ([7]; Day 6, 50 mg/kg): 3.1±1.1 Log10 CCID50/qram
- Virus titer in Lung ([7]; Day 6, 50 mg/kg): 3.4±0.6 Log10 CCID50/qram
- Virus titer in spleen ([7]; Day 6, 50 mg/kg): 4.3±1.2 Log10 CCID50/qram
- Virus titer in Liver ([7]; Day 6, 100 mg/kg): < 2.5±0.0 Log10 CCID50/qram
- Virus titer in Lung ([7]; Day 6, 100 mg/kg): 3.9±0.8 Log10 CCID50/qram
- Virus titer in salivary gland ([7]; Day 6, 100 mg/kg): 2.8±0.3 Log10 CCID50/qram
- Virus titer in spleen ([7]; Day 6, 100 mg/kg): 4.9±0.6 Log10 CCID50/qram
- Virus titer in Liver ([7]; Day 6, 200 mg/kg): < 2.5±0.0 Log10 CCID50/qram
- Virus titer in Lung ([7]; Day 6, 200 mg/kg): 3.1±0.4 Log10 CCID50/qram
- Virus titer in salivary gland ([7]; Day 6, 200 mg/kg): 3.5±0.7 Log10 CCID50/qram
- Virus titer in spleen ([7]; Day 6, 200 mg/kg): 3.7±0.7 Log10 CCID50/qram
- Effect on tissue virus titres (in words) [7, 15]: reduced MCMV tissue virus titres; also recorded: reducing tissue virus titres
- Survivors (%) ([8]; 50 mg/kg): 100%
- Survivors/total ([8]; 50 mg/kg): 5/5
- Mean Weight Gain ([8]; 50 mg/kg): 8.4 gm
- Survivors (%) ([8]; 100 mg/kg): 100%
- Survivors/total ([8]; 100 mg/kg): 5/5
- Mean Weight Gain ([8]; 100 mg/kg): 9.0 gm
- Survivors (%) ([8]; 200 mg/kg): 100%
- Survivors/total ([8]; 200 mg/kg): 5/5
- Mean Weight Gain ([8]; 200 mg/kg): 6.9 gm
- % Chromium Release ± SD, Effector:Target Ratio 25:1 [9, 16]: 13.9 ± 2.0%
- % Chromium Release ± SD, Effector:Target Ratio 50:1 [9, 16]: 24.0 ± 1.7%
- Effect on natural killer (NK) cell activity (in words) [9, 17]: significantly stimulate; also recorded: stimulated
- Mean CPM of Treated Thymocytes ± SD [10, 16]: 5660 ± 1011 CPM
- Effect on macrophage function (in words) [10, 17]: somewhat stimulatory; also recorded: macrophage stimulation
